Test [1] has as its system CFP-DH4 (A1cOX). The test can be described thus: Acceleration of HbA1c detection reaction with small amount of A1cOX (Example 5). The format is biochemical. The conditions noted are these: HbA1c detection reaction, ΔA/ΔA100%, 0.04% (w/v) compound, 1.1 mg/ml CFP-DH4. On the procedure:
Next, in this Example, the degree of acceleration of HbA1c detection reaction by the compound of the present invention was determined using a small amount of A1cOX.
A reagent for HbA1c measurement having the following composition was prepared, and the measurement of HbA1c was carried out using Bio Majesty JCA-BM1650 (manufactured by JEOL Ltd.).
(§1) Blood cells (10.4% HbA1c (NGSP value))
(§2) 30 mM MOPS-NaOH buffer solution, pH 6.5
0.2% (w/v) n-dodecyl-3-D-maltoside (manufactured by Dojindo Laboratories)
(§3) 10 U/ml peroxidase PEO-301 (Toyobo Co., Ltd.)
(§4) 0.023 mM 10-(carboxymethylaminocarbonyl)-3,7-bis(dimethylamino)phenothiazine sodium (DA-67, manufactured by Wako Pure Chemical Industries, Ltd.)
0.04% (w/v) of the compound of Comparative Example 2, any one compound of the present invention, or compound-free (Comparative Example 1) ion-exchange water as shown in Table 2
10 mM MOPS-NaOH buffer solution, pH 6.5
1.1 mg/ml CFP-DH4 (A cOX)
8 μl of the sample diluted 51-fold with ion-exchange water was added to 96 μl of the first reagent, and the mixture was incubated at 37° C. for 5 minutes. Then, 24 μl of the second reagent-B was added thereto, and the quantitative reaction of hydrogen peroxide resulting from the oxidation of the β-chain amino terminus of HbA1c was allowed to progress at 37° C. for 5 minutes. The absorbance ([…] and A751) of the reaction solution for light at wavelengths of 694 nm and 751 nm was measured over time for 10 minutes after the mixing of the diluted sample with the first reagent to determine the value of subtraction of A751 from A694, i.e., the value A694/751. Subsequently, ΔA was calculated by subtracting, from A694/751, the value of (104/128) times A694/751 4.8 minutes after the mixing of the diluted sample with the first reagent. Incidentally, […] after the mixing of the diluted sample with the first reagent represents the time immediately before the addition of the second reagent-B.
Next, ΔA calculated in this Example was divided by ΔA100% defined in Example 4 to calculate the degree of progression of HbA1c detection reaction. The degree of progression of HbA1c detection reaction 7.5 and 10 minutes after the mixing of the diluted sample with the first reagent (in other words, 2.5 and 5 minutes after the addition of the second reagent-B) is shown in Table 2.

The subject of test [2] is CFP-DH4 (A1cOX). The test can be described thus: HbA1c detection reaction completed with excess A1cOX (Example 4). The format is biochemical. The conditions noted are these: 0.04% (w/v) compound, 5.3 mg/ml CFP-DH4 (excess), blood cells 10.4% HbA1c, pH 6.5, 37° C. On the procedure:
In this Example, the amount of change in absorbance when an excess amount of A1cOX is used and HbA1c detection reaction was completed is determined.
A reagent for HbA1c measurement having the following composition was prepared, and the measurement of HbA1c was carried out using Bio Majesty JCA-BMI650 (manufactured by JEOL Ltd.).
as §1, §2
0.2% (w/v) n-dodecyl-β-D-maltoside (manufactured by Dojindo Laboratories)
as §3, §4
0.04% (w/v) of the compound of Comparative Example 2 (Wako Pure Chemical Industries, Ltd.), any one compound of the present invention (all from Tokyo Chemical Industry Co., Ltd. except for Acid Yellow 34 from MP Biomedicals, LLC), or compound-free (Comparative Example 1) ion-exchange water as shown in Table 1 (Second Reagent-A) 10 mM MOPS-NaOH buffer solution, pH 6.5 5.3 mg/ml CFP-DH4 (A cOX)
8 μl of the sample diluted 51-fold with ion-exchange water was added to 96 μl of the first reagent-A, and the mixture was incubated at 37° C. for 5 minutes. Then, 24 μl of the second reagent-A was added thereto, and the quantitative reaction of hydrogen peroxide resulting from the oxidation of the β-chain amino terminus of HbA1c was allowed to progress at 37° C. for 5 minutes. The absorbance (A694 and A751) of the reaction solution for light at wavelengths of 694 nm and 751 nm was measured over time for 10 minutes after the mixing of the diluted sample with the first reagent-A to determine the value subtracting of A751 from A694, i.e., the value A694/751. Subsequently, ΔA was calculated by subtracting, from A694/751, the value of (104/128) times A694/751 4.8 minutes after mixing the diluted sample with the first reagent-A. Incidentally, 4.8 minutes after the mixing of the diluted sample with the first reagent-A represents the time immediately before the addition of the second reagent-A. ΔA 9 minutes and 10 minutes after the mixing of the diluted sample with the first reagent (ΔA9min and ΔA10min) are shown in Table 1.
In other words, it can be recognized that the quantitative reaction of HbA1c, i.e., the quantitative reaction of hydrogen peroxide resulting from the oxidation of HbA1c, was completed in 10 minutes after the mixing of the diluted sample with the first reagent-A. Accordingly, in Examples 4 and 5, ΔA10min in each Comparative Example or the present invention was defined as ΔA when 100% of the quantitative reaction of HbA1c progressed under each condition (ΔA100%).

With `O=C([O-])C1=NN(c2ccc(S(=O)(=O)[O-])cc2)C(=O)C1N=Nc1ccc(S(=O)(=O)[O-])cc1.[Na+].[Na+].[Na+]` (stereo not shown) [Tartrazine, reference compound], the “Degree of progression of reaction (%) after 7.5 minutes” value in test [1] (2.5 minutes after addition of second reagent, not added: 51) was found to be 38%. In test [1] (5 minutes after addition of second reagent, not added: 73), the “Degree of progression of reaction (%) after 10 minutes” value came to 62%. The same molecule showed a ΔA9 min in test [2] (change in A694-A751 9 minutes after mixing sample with first reagent) of 0.032. The same molecule registered a ΔA10 min in test [2] (change in A694-A751 10 minutes after mixing sample with first reagent, defined as ΔA100%) of 0.032.
